≈ marks a conversion by molar mass, not a printed value. Read-outs that look alike come from different tables or passages of the source.
How the values were obtained:
ALDH2 = details: Faiman et al., 2013; cited from earlier work
[1] = test system: high alcohol-drinking-1 (HAD1) rats; assay: 2-hour ethanol intake by adult male HAD1 rats after IP carbamathione; format: in vivo; details: IP 100, 200, 400 mg/kg, saline with 0.25% Tween 80 vehicle
Experimental: (§1) The efficacy of carbamathione in reducing ethanol intake of rats was assessed. Adult male alcohol-preferring rats (P rats) and high alcohol-drinking-1 (HAD1) rats (˜75 days of age at the start) were used in this study. These rats underwent an 8-week acquisition/acclimation period of concurrent free-choice access to 15% and 30% ethanol. Animals were initiated with 24-hour access, which was titrated down to 2 hours per day for 5 days (Monday-Friday)/week access. Ethanol access began at the beginning of the dark cycle (10:00 h) in a room maintained on a reverse dark-light cycle (10:00 h to 22:00 h lights out).
(§2) After the acquisition period, the animals underwent three weeks of testing. Four doses were tested: 0, 100, 200, and 400 mg/kg/day. Sterile isotonic (0.9% normal) saline with 0.25% Tween® 80 was used as the vehicle for all doses. Injection solutions were prepared approximately 1 hour prior to each administration.
(§3) The carbamathione solution was maintained at −20° C. until mixing the solutions each day. Adding the carboxyl-associated compound helped dissolve the carbamathione solid, which was pulverized by mortar and pestle with 50 μl Tween® 80, resulting in a pH of 3.5. […] Doses were calculated at 3 ml/kg to allow for injection volume of 1.5 ml per 500 g rat. […]
(§4) Data were analyzed by Dose, by Test Day, and 2-way mixed ANOVAs on each rat line, followed by Dunnett t-test planned comparisons.

[2] = test system: nucleus accumbens (NAc) and prefrontal cortex (PFC); details: intravenous administration, rats, Faiman et al., 2013; cited from earlier work
[3] = Visual solubility of free carbamathione in water and common organic solvents; format: physicochemical
Experimental: Initially, the solubility of free carbamathione was evaluated in water and in common organic solvents. The common organic solvents tested included dichloromethane (DCM), methanol, ethyl acetate, ethanol, acetonitrile, acetone, 2-propanol, and N,N-dimethylformamide.
For each solvent the solubility of carbamathione was assessed by weighing out 50 mg of carbamathione into a stoppered tube followed by the addition of 0.05 mL of the test solvent to the tube. The mixture underwent vigorous shaking for 1 minute, and was placed in a constant temperature device for 15 minutes at 25.0±0.5° C. If the carbamathione was not completely dissolved, vigorous shaking was repeated for 1 minute and then placed in a constant temperature device for an additional 15 minutes. If the carbamathione was not fully dissolved, additional solvent was added portion-wise until dissolution of carbamathione was observed. If complete dissolution was not observed, the solution was heated until the boiling point under stirring to verify the solubility at high temperature. The solvents were classified according to the visual solubility determined into the groups described in Table 6.

[4] = Solubility of free carbamathione in buffer by portion-wise addition of solid; format: physicochemical; details: thermodynamic from solid, read-out: Solubility TNX1001
Experimental: The solubility of free carbamathione was determined to be between 20 and 30 mg/mL, as 100 mg of free carbamathione dissolved completely in 5 mL of buffer, but a saturated solution was formed when a subsequent 50 mg aliquot of solid was added to the solution.
The solubility of free carbamathione was determined to be between 10 and 20 mg/mL, as 50 mg of free carbamathione dissolved completely in 5 mL of buffer, but a saturated solution was formed when a subsequent 50 mg aliquot of solid was added to the solution.

[5] = test system: alcohol-preferring rats (P rats); assay: 2-hour ethanol intake by adult male P rats after IP carbamathione; format: in vivo
Experimental: as §1, §2, §3, §4

CCN(CC)C(=O)SCC(NC(=O)CCC(N)C(=O)O)C(=O)NCC(=O)O (stereo not shown) [carbamathione, S—(N,N-diethylcarbamoyl)glutathione]
inhibitory activity of ALDH2 (ALDH2): devoid of inhibitory activity | effect on 2-hour ethanol intake [1]: no effect | GABA [2]: decreases | dopamine (DA) [2]: increases | glutamate (Glu) [2]: biphasic effect | Solubility at HT ([3]; 2-Propanol, heated until the boiling point): No | Solubility at HT ([3]; Acetone, heated until the boiling point): No | Solubility at HT ([3]; Acetonitrile, heated until the boiling point): No | Solubility at HT ([3]; Dichloromethane, heated until the boiling point): No | Solubility at HT ([3]; Ethanol, heated until the boiling point): No | Solubility at HT ([3]; Ethyl Acetate, heated until the boiling point): No | Solubility at HT ([3]; Methanol, heated until the boiling point): No | Solubility at HT ([3]; N,N-Dimethylformamide, heated until the boiling point): No | Solubility at HT ([3]; Tetrahydrofuran, heated until the boiling point): No | Solubility at HT ([3]; Water, heated until the boiling point (100° C.)): Dissolved | solubility in water ([3]; only at high temperature): sparingly soluble | solubility in all of the common organic solvents ([3]; visual solubility): very slightly soluble | solubility ([4]; aqueous buffer, pH 4.5, 25° C.): 10 to 20 mg/mL (≈ 24.6 to 49.2 mM) | solubility ([4]; aqueous buffer, pH 6.8, 25° C.): 20 to 30 mg/mL (≈ 49.2 to 73.8 mM) | solubility ([4]; simulated gastric fluid, pH 1.2, 25° C.): 25 to 33 mg/mL (≈ 61.5 to 81.2 mM) | effect on 2-hour ethanol intake ([5]; IP 100, 200, 400 mg/kg, saline with 0.25% Tween 80 vehicle): modest positive effect | 2 h ethanol intake, Dunnett's t-test for main effect of dose ([5]; highest dose (400 mg/kg/day IP)): significant effect

From patent US20220153780A1, “SALT FORMS OF S-(N, N-DIETHYLCARBAMOYL)GLUTATHIONE” (Tonix Pharma Holdings Limited, priority 2019, published 2022)
